Experimental data from patent US9550739B2, “Molecules having certain pesticidal utilities, and intermediates, compositions, and processes related thereto” (priority 2014, dated 2017).

Tests used:
Assay type in all cases: in vivo
[1] = tested on: Beet Armyworm (Spodoptera exigua, LAPHEG) ("BAW"); assay: Bioassays on Beet Armyworm (BAW), 128-well diet tray assay; settings: Spodoptera exigua, 168 h; second instar BAW larvae, 50 μg/cm^2 on artificial diet, five to seven days, 25° C.; read-out: BAW % Control (or Mortality) rating
Summary of the method: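 Second-instar larvae, one to five per well, were placed on artificial diet surface-treated with 50 μg/cm^2 compound in 90:10 acetone-water and dried, eight wells per compound. Trays were held at 25° C, 14:10 light-dark, for five to seven days. Percent mortality per well was averaged over the eight wells.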

[2] = tested on: Green Peach Aphid (Myzus persicae, MYZUPE) ("GPA"); assay: Bioassays on Green Peach Aphid (GPA), cabbage seedling foliar spray; settings: 72 h, 200 ppm foliar spray on cabbage seedlings, three days, Abbott corrected % control, read-out: GPA % Control (or Mortality) rating
Description: Certain molecules disclosed in this document were tested against GPA using procedures described in the following example. In the reporting of the results, the “GPA Rating Table” was used (See Table Section).
Cabbage seedlings grown in 3-inch pots, with 2-3 small (3-5 cm) true leaves, were used as test substrate. The seedlings were infested with 20-50 GPA (wingless adult and nymph stages) one day prior to chemical application. Four pots with individual seedlings were used for each treatment. Test compounds (2 mg) were dissolved in 2 mL of acetone/methanol (1:1) solvent, forming stock solutions of 1000 ppm test compound. The stock solutions were diluted 5× with 0.025% Tween 20 in water to obtain the solution at 200 ppm test compound. A hand-held aspirator-type sprayer was used for spraying a solution to both sides of […] leaves until runoff. Reference plants (solvent check) were sprayed with the diluent only containing 20% by volume of acetone/methanol (1:1) solvent. Treated plants were held in a holding room for three days at approximately 25° C. and ambient relative humidity (RH) prior to grading. Evaluation was conducted by counting the number of live aphids per plant under a microscope. Percent Control was measured by using Abbott's correction formula (W. S. Abbott, “A Method of Computing the Effectiveness of an Insecticide” J. Econ. Entomol. 18 (1925), pp. 265-267) as follows. Corrected % Control=100*(X−Y)/X • where • X=No. of live aphids on solvent check plants and • Y=No. of live aphids on treated plants

[3] = tested on: Yellow Fever Mosquito (Aedes aegypti, AEDSAE) ("YFM"); settings: about 1 day-old larvae, 4000 ppm master solution diluted, 3 days, room temperature
Summary of the method: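 Compounds from 4000 ppm DMSO master plates, diluted in 90:10 water:acetone, dispensed into 96-well plates, six replicates. About 1-day-old larvae added in liver-powder water. Wells covered, held 3 days at room temperature, then scored for mortality.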

[4] = tested on: Cabbage Looper (Trichoplusia ni, TRIPNI) ("CL"); assay: Bioassays on Cabbage Looper (CL), 128-well diet tray assay; settings: Trichoplusia ni, 168 h, read-out: CL % Control (or Mortality) rating
Summary of the method: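 Second instar larvae (one to five per well) placed on artificial diet treated with 50 μg/cm^2 compound in acetone-water, eight wells per compound. Held at 25° C, 14:10 light-dark for five to seven days; percent mortality averaged across wells.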

| Structure (SMILES) | mortality at 50 µg/cm2 [1] | mortality at 200 ppm [2] | YFM % Control (or Mortality) rating [3] | mortality at 50 µg/cm2 [4] |
| --- | --- | --- | --- | --- |
| O=C(NCCc1ccc(-c2ncn(-c3ccc(OC(F)(F)F)cc3)n2)cc1)c1ccc(F)c(-c2ccccc2F)c1 [F55, 2′,6-Difluoro-N-(4-(1-(4-(trifluoromethoxy)phenyl)-1H-1,2,4-triazol-3-yl)phenethyl)-[1,1′-biphenyl]-3-carboxamide] | 50 to 100% | 0 to 80% | D (No activity noticed in this bioassay) | 50 to 100% |
| Cc1cccc(C)c1-c1cccc(C(=O)Nc2ccc(-c3ncn(-c4ccc(OC(F)(F)F)cc4)n3)cc2)c1 [F12, 2′,6′-Dimethyl-N-(4-(1-(4-(trifluoromethoxy)phenyl)-1H-1,2,4-triazol-3-yl)phenyl)-[1,1′-biphenyl]-3-carboxamide] | 50 to 100% | 0 to 80% | A (80-100) | 50 to 100% |
| Cc1c(C(=O)Nc2ccc(-c3ncn(-c4ccc(OC(F)(F)F)cc4)n3)cc2)cccc1-c1ccccc1 [F14, 2-Methyl-N-(4-(1-(4-(trifluoromethoxy)phenyl)-1H-1,2,4-triazol-3-yl)phenyl)-[1,1′-biphenyl]-3-carboxamide] | 50 to 100% | 0 to 80% | D (No activity noticed in this bioassay) | 50 to 100% |
| COc1ccccc1-c1cccc(C(=O)Nc2ccc(-c3ncn(-c4ccc(C(F)(F)F)cc4)n3)cc2)c1 [F60, 2′-Methoxy-N-(4-(1-(4-(trifluoromethyl)phenyl)-1H-1,2,4-triazol-3-yl)phenyl)-[1,1′-biphenyl]-3-carboxamide] | 50 to 100% | 0 to 80% | A (80-100) | 50 to 100% |
| O=C(Nc1ccc(-c2ncn(-c3ccc(OC(F)(F)F)cc3)n2)cc1)c1cccc(-c2ccccc2)c1 [F24, N-(4-(1-(4-(trifluoromethoxy)phenyl)-1H-1,2,4-triazol-3-yl)phenyl)-[1,1′-biphenyl]-3-carboxamide] | 50 to 100% | 0 to 80% | D (No activity noticed in this bioassay) | 50 to 100% |
| O=C(Nc1ccc(-c2ncn(-c3ccc(C(F)(F)F)cc3)n2)cc1)c1ccc(F)c(-c2ccccc2F)c1 [F59, 2′,6-Difluoro-N-(4-(1-(4-(trifluoromethyl)phenyl)-1H-1,2,4-triazol-3-yl)phenyl)-[1,1′-biphenyl]-3-carboxamide] | 50 to 100% | 0% | A (80-100) | 50 to 100% |
| CCc1ccccc1-c1cccc(C(=O)Nc2ccc(-c3ncn(-c4ccc(OC(F)(F)F)cc4)n3)cc2)c1 [F8, 2′-Ethyl-N-(4-(1-(4-(trifluoromethoxy)phenyl)-1H-1,2,4-triazol-3-yl)phenyl)-[1,1′-biphenyl]-3-carboxamide] | 50 to 100% | 0 to 80% | B (More than 0-Less than 80) | 50 to 100% |
| CCOc1ccccc1-c1cccc(C(=O)Nc2ccc(-c3ncn(-c4ccc(OC(F)(F)F)cc4)n3)cc2)c1 [F38, 2′-Ethoxy-N-(4-(1-(4-(trifluoromethoxy)phenyl)-1H-1,2,4-triazol-3-yl)phenyl)-[1,1′-biphenyl]-3-carboxamide] | 50 to 100% | 0 to 80% | A (80-100) | 50 to 100% |
| O=C(Nc1ccc(-c2ncn(-c3ccc(OC(F)(F)C(F)(F)F)cc3)n2)cc1)c1cc(Cl)cc(-c2ccccc2)c1 [F6, 5-Chloro-N-(4-(1-(4-(perfluoroethoxy)phenyl)-1H-1,2,4-triazol-3-yl)phenyl)-[1,1′-biphenyl]-3-carboxamide] | 0% | – | D (No activity noticed in this bioassay) | 0% |
